Assay results from ChEMBL document CHEMBL1201862, “PubChem BioAssay data set” (2004).
Activity calls are given as the source filed them.

Columns and labels:
[1] = target: T1, Histone-lysine N-methyltransferase NSD2 (Homo sapiens, UniProt O96028); format: biochemical
T1 sequence (O96028 whole entry): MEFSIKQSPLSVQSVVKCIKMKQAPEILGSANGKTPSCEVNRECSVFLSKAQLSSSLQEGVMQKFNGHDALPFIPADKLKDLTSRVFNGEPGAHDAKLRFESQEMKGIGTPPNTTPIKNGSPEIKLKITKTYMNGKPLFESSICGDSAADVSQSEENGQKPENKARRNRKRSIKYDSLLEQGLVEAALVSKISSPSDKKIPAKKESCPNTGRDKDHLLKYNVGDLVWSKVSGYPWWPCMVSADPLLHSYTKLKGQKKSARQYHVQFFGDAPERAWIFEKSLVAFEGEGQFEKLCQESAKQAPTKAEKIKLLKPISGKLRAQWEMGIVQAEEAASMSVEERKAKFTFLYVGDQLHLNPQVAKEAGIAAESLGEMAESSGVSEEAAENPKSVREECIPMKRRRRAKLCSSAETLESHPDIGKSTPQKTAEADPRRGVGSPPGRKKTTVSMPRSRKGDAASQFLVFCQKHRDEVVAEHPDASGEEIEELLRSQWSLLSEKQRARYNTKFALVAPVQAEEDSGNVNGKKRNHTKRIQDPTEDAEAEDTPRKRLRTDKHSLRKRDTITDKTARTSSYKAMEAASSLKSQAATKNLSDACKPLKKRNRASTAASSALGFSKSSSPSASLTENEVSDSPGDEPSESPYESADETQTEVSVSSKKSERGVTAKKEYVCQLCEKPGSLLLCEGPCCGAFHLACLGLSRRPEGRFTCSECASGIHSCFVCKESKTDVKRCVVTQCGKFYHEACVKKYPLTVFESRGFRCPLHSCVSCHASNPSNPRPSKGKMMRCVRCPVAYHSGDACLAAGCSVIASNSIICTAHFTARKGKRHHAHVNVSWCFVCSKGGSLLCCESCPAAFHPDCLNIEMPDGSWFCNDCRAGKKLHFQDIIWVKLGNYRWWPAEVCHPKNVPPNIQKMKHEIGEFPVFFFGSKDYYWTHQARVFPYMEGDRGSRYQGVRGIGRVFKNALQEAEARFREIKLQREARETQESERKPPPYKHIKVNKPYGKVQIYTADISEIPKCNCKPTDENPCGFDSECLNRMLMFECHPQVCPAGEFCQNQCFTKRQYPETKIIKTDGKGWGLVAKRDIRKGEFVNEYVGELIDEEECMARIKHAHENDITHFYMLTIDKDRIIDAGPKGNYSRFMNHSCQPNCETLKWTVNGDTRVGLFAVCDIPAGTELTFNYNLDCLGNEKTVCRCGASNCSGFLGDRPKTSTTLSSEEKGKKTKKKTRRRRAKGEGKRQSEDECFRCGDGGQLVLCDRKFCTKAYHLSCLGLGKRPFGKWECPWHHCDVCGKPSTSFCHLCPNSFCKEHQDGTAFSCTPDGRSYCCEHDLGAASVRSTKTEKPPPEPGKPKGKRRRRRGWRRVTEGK

[2] = target: DNA dC->dU-editing enzyme APOBEC-3G (Homo sapiens, UniProt Q9HC16); format: functional;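 note: Dose-response counterscreen measuring inhibition of APOBEC3G DNA deaminase activity, run while confirming APOBEC3A inhibitors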
Sequence of DNA dC->dU-editing enzyme APOBEC-3G (Q9HC16 whole entry): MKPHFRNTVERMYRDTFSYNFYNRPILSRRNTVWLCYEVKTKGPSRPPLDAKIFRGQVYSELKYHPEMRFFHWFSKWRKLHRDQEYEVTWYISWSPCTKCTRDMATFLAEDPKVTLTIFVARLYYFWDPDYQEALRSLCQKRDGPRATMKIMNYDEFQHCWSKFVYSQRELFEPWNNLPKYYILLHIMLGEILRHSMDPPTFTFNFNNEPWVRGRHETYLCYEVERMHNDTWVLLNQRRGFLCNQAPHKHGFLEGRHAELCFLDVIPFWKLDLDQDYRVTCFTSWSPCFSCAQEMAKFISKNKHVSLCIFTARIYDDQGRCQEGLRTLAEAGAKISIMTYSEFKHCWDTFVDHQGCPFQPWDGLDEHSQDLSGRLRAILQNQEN

[3] = target: DNA dC->dU-editing enzyme APOBEC-3A (Homo sapiens, UniProt P31941); experiment: Dose Response confirmation of small molecule APOBEC3A DNA Deaminase Inhibitors via a fluorescence-based single-stranded DNA deaminase assay. [Related pubchem assays (depositor defined):AID493011, AID493024]; format: functional
Sequence of DNA dC->dU-editing enzyme APOBEC-3A (P31941 whole entry): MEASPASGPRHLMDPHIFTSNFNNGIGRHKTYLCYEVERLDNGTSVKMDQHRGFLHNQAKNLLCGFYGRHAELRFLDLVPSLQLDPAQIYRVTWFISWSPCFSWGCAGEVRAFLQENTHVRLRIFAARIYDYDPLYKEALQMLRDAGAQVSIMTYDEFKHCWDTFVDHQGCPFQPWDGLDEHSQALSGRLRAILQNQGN

[4] = target: Troponin, cardiac muscle (Homo sapiens, UniProt P19429+P45379+P63316); experiment: Fluorescence-based biochemical high throughput dose response assay for activators of the calcium sensitivity of cardiac Regulated Thin Filaments (RTF). [Related pubchem assays (depositor defined):AID493008, AID493018, AID504382, AID504383]; format: protein-complex assay
[5] = target: T2, Sentrin-specific protease 8 (Homo sapiens, UniProt Q96LD8); format: functional;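 note: luminescence read-out of SENP8 inhibition, dose-response confirmation following an ultra-high-throughput screen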
T2 sequence (Q96LD8 whole entry): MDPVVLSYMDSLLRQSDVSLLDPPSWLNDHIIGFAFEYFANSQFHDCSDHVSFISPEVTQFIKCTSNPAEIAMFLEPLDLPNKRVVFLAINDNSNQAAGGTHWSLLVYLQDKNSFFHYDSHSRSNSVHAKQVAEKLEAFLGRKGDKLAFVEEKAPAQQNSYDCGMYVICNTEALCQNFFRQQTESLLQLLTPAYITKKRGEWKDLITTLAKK

[6] = Luminescence Cell-Based Dose Response HTS to Identify Inhibitors of 5'UTR Stem-Loop Driven Prion Protein mRNA Translation in H4 Neuroglioblastoma Cells. [Related pubchem assays: 1827 (Project Summary), 1813 (Primary HTS)]; format: functional
[7] = cells; format: functional, cell-based
[8] = target: T3, Sentrin-specific protease 6 (Homo sapiens, UniProt Q9GZR1); format: functional;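 note: Luminescence-based dose-response confirmatory assay of SENP6 inhibition, following up an ultra-high-throughput screen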
T3 sequence (Q9GZR1 whole entry): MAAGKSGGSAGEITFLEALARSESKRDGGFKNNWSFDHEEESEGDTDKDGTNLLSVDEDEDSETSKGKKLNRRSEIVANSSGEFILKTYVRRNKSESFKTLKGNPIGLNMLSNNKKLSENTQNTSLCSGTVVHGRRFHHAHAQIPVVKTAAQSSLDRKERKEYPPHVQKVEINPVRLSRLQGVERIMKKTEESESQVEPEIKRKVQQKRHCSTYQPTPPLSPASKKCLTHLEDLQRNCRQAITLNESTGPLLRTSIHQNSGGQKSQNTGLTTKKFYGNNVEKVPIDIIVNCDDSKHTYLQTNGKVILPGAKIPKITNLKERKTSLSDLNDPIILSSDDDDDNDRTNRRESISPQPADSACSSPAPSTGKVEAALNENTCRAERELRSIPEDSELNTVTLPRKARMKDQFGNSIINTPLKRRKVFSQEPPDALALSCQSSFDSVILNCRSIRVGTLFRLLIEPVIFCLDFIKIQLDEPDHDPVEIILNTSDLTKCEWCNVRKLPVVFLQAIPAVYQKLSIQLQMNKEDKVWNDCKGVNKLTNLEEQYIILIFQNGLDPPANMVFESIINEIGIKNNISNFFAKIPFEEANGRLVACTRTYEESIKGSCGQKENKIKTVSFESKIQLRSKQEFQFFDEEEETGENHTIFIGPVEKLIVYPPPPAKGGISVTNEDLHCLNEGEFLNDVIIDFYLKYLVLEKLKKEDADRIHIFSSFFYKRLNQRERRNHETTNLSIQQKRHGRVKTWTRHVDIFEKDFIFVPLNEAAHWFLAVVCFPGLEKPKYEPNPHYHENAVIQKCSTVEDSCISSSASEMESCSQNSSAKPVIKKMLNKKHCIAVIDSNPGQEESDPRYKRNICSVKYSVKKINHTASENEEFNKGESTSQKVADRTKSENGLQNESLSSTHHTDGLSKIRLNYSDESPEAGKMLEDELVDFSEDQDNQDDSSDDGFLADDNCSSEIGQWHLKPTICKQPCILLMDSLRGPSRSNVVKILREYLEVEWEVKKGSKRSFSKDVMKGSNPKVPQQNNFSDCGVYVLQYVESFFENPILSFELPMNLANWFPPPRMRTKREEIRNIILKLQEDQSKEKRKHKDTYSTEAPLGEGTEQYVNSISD

[9] = cells; format: functional, cell-based; remark: listed apart in the source
[10] = target: T4, Caspase-3 (Homo sapiens, UniProt P42574); format: functional;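 note: Dose-response selectivity test against caspase-3 for candidate inhibitors of sentrin-specific proteases (SENPs)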
T4 sequence (P42574 whole entry): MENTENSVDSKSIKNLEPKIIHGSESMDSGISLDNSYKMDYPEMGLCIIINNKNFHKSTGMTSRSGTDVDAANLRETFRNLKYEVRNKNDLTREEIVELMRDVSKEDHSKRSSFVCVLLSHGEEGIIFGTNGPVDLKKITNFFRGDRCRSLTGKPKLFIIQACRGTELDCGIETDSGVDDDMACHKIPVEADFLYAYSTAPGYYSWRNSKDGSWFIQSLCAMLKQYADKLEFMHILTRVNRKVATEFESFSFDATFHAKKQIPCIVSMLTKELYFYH

[11] = target: T5, Sentrin-specific protease 7 (Homo sapiens, UniProt Q9BQF6); format: functional;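 note: Luminescence-based dose-response confirmation of ultra-high-throughput screening hits, measuring inhibition of SENP7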
T5 sequence (Q9BQF6 whole entry): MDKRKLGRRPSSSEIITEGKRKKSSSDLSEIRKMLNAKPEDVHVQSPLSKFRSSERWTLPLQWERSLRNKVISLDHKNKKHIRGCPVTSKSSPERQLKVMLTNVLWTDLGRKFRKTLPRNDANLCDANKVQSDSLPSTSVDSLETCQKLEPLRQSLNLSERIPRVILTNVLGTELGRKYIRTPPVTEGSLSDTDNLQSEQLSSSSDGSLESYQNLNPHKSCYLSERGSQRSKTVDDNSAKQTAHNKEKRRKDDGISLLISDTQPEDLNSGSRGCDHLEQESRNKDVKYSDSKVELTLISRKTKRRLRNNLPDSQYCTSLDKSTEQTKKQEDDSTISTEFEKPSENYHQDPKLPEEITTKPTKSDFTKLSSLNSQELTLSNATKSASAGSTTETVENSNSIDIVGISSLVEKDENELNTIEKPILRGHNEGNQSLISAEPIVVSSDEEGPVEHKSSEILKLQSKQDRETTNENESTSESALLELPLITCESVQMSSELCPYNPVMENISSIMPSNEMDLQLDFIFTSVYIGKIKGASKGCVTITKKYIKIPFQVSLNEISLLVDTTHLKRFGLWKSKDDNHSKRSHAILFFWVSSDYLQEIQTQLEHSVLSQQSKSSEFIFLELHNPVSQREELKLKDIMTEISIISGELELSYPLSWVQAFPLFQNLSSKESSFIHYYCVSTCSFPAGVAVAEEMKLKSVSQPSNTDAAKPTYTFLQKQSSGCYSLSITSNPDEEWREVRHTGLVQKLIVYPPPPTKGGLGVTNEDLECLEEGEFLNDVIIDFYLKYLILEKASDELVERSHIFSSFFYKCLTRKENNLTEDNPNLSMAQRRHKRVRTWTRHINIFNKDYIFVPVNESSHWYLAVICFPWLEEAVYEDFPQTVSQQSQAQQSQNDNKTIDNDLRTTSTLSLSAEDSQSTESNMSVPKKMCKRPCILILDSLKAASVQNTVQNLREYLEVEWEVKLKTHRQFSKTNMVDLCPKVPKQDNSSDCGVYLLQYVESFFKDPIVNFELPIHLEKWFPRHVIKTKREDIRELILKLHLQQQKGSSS

[12] = tested on: Escherichia coli; experiment: microbe, parasite or virus in culture
[13] = target: Cytochrome P450 2D6 (Homo sapiens, UniProt P10635);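 note: CYP2D6 member of a cytochrome P450 panel assay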
Sequence of Cytochrome P450 2D6 (P10635 whole entry): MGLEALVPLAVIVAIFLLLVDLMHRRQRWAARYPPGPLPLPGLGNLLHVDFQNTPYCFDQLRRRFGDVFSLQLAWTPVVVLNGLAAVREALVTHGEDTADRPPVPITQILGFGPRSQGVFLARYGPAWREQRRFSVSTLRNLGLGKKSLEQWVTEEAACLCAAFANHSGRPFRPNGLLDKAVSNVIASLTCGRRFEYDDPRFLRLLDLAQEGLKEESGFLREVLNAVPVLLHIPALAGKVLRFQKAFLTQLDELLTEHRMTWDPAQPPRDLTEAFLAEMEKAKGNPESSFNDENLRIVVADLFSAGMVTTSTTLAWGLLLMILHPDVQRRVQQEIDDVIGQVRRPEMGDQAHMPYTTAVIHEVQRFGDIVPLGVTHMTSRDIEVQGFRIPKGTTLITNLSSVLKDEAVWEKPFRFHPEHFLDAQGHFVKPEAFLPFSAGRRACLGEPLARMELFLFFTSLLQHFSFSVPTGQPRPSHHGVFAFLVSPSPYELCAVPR

[14] = target: Cytochrome P450 2C9 (Homo sapiens, UniProt P11712)
Sequence of Cytochrome P450 2C9 (P11712 whole entry): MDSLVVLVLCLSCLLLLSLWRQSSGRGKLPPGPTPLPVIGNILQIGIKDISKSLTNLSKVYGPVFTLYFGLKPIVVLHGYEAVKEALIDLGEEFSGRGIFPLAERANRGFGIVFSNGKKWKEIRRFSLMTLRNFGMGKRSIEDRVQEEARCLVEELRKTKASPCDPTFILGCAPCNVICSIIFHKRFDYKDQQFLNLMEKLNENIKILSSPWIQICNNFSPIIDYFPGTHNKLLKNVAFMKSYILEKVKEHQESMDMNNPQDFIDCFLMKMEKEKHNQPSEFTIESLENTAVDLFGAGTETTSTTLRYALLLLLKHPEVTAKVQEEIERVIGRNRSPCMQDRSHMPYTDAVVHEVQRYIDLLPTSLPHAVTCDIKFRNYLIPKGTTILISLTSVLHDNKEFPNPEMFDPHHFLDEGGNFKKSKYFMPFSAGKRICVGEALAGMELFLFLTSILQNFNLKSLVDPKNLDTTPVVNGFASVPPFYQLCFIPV

[15] = target: Eukaryotic translation initiation factor 4E (Mus musculus, UniProt P63073); experiment: blockers of eIF4G binding by eIF4E – biochemical, TR-FRET, dose response (AID 855); format: functional;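 note: potency for disrupting eIF4E binding to eIF4GI seen as loss of FRET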
Sequence of Eukaryotic translation initiation factor 4E (P63073 whole entry, the tested form may be a part): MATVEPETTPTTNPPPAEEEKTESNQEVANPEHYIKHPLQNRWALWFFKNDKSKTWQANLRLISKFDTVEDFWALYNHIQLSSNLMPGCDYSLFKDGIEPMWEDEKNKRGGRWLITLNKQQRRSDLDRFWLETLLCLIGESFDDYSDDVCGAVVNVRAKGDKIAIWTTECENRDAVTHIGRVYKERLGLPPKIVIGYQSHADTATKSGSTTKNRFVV

[16] = target: T6, Carboxy-terminal domain RNA polymerase II polypeptide A small phosphatase 1 (Homo sapiens, UniProt Q9GZU7); experiment: CTDSP1 inhibitors, concentration-response, biochemical, absorbance readout, ultra-high-throughput screen actives (AID 540297); format: functional
T6 sequence (Q9GZU7 whole entry): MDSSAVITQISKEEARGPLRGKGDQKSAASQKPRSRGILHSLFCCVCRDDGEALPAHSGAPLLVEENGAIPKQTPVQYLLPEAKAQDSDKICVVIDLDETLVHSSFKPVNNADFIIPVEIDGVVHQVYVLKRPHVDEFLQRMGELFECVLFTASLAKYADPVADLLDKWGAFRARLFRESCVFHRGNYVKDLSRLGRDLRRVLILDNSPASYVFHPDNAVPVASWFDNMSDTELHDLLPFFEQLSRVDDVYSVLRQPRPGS

O=C(O)c1ccc(CSc2n[nH]c(-c3ccco3)n2)cc1
AC50 [1]: > 20 µM (inactive)
IC50 [2]: 19.3 µM (active)
IC50 [3]: 9.95 µM (active)

CC1CN(c2ccc(NS(=O)(=O)c3ccccc3)cc2C(=O)O)CC(C)O1 (centres undefined)
EC50 [4]: > 71.5 µM (inactive)

O=C(O)c1ccc2cc(-c3ccccc3)[nH]c2c1
IC50 [5]: 1.53 µM (active)
EC50 [6]: 11.8 µM (inconclusive)
EC50 [7]: 2.55 µM (active)
IC50 [8]: 1.08 µM (active)
EC50 [9]: > 350 µM (not active)
IC50 [10]: 1.22 µM (active)
IC50 [11]: 0.938 µM (active)

CCOC(=O)c1ccc(NC(=O)/C=C/c2cccs2)cc1
IC50 [5]: 14.5 µM (active)
IC50 [8]: 15 µM (active)
IC50 [10]: 21.6 µM (active)
IC50 [11]: 4.96 µM (active)

CCOC(=O)N1CCC(N(CCN(C)C)C(S)=Nc2ccc(Oc3ccccc3)cc2)CC1
AC50 [12]: 43.6 µM (active)

COc1ccc(Cl)cc1N=C(S)NCc1cccnc1
AC50 [12]: 29.7 µM (active)

O=[N+]([O-])c1cccc(/C=N/Nc2ccccn2)c1
IC50 [5]: > 100 µM (inactive)
IC50 [8]: > 100 µM (inactive)
IC50 [10]: 8.82 µM (active)
IC50 [11]: 7.65 µM (active)

Nc1nnnn1CC(=O)N/N=C/c1ccc(-c2cccc(Cl)c2)o1
AC50 [12]: 21.6 µM (active)

COc1ccc(-c2nn(-c3ccccc3)cc2/C=N/NC(N)=S)cc1OC
EC50 [4]: > 71.5 µM (inactive)

CC(=O)c1ccc[n+](CC(=O)NC(C)c2ccccc2)c1 (centres undefined)
IC50 [2]: 6.17 µM (active)
IC50 [3]: 3.57 µM (active)

Cc1[nH]c2ccccc2c1/C=C(\C#N)C(=O)NC(C)c1ccccc1 (centres undefined)
AC50 [13]: 8.91 µM (inconclusive)
IC50 [2]: 2.64 µM (active)
AC50 [14]: inconclusive
IC50 [3]: 1.87 µM (active)

CC(=O)C1=C(c2ccccc2)OC(N)=C(C#N)C1c1ccc(O)cc1 (centres undefined)
IC50 [15]: > 64 µM (inactive)

COc1ccccc1-c1noc(CSc2nc(C)cc(O)n2)n1
IC50 [2]: 19.4 µM (active)
IC50 [3]: 16.6 µM (active)

O=C(NCc1ccc(F)cc1)c1c2c(nc3ccccc13)CCC2
IC50 [15]: 50 µM (inactive)
IC50 [16]: 5.44 µM (active)
